{"source": "patent US6706509B2", "about": "“Oncoprotein protein kinase” (The Regents of the University of California, priority 1993, dated 2004)", "format_in_all_cases": "cell-based, human", "key": {"[1]": {"tested_on": "N-terminal c-Jun kinase (JNK)", "assay": "Solid-phase kinase assay of N-terminal c-Jun kinase activity in Jurkat cell extracts", "conditions": "Jurkat cells, TPA 50 ng/ml, after 30 minutes", "protocol": "(§1) Cell extracts were diluted so that the final composition of the WCE buffer was 20 mM HEPES pH 7.7, 75 mM NaCl, 2.5 mM MgCl2, 0.1 mM EDTA, 0.05% Triton X-100, 0.5 mM DTT, 20 mM β-glycerolphosphate, 0.1 mM Na3VO4, 2 μg/ml leupeptin, 100 μg/ml PMSF. The extracts were mixed with 10 μl of GSH-agarose suspension (Sigma) to which 10 μg of either GST or GST-Jun fusion proteins were bound. The mixture was rotated at 4° C. for 3 hours in a microfuge tube and pelleted by centrifugation at 10,000×g for 20 sec. After 4×1 ml washes in HEPES binding buffer (20 mM HEPES pH 7.7, 50 mM NaCl, 2.5 mM MgCl2, 0.1 mM EDTA, 0.05% Triton X-100), the pelleted beads were resuspended in 30 μl of kinase buffer (20 mM HEPES pH 7.6, 20 mM MgCl2, 20 mM β-glycerolphosphate, […] p-nitrophenyl phosphate, 0.1 mM Na3VO4, 2 mM DTT) containing 20 μM ATP and 5 μCi γ-^32P-ATP. After 20 minutes at 30° C. the reaction was terminated by washing with HEPES binding buffer. Phosphorylated proteins were eluted with 30 μl of 1.5×Laemlli sample buffer and resolved on a 10% SDS polyacrylamide gel, followed by autoradiography. Quantitation of phosphate incorporated was determined by gel slicing and scintillation counting. Phosphorylated GST fusion proteins were eluted from gel slices and subjected to phosphopeptide mapping as described (Boyle, et al., supra, 1991). […]"}, "[2]": {"tested_on": "N-terminal c-Jun kinase (JNK)", "assay": "Solid-phase kinase assay of N-terminal c-Jun kinase activity in HeLa cell extracts", "conditions": "HeLa S3 cells, TPA 100 ng/ml", "protocol": "as §1"}, "c-jun": {"tested_on": "c-jun", "assay": "Northern blot of c-jun expression in Jurkat cells", "protocol": "(§2) Exponentially growing Jurkat cells (10^6/ml) grown in complete RPMI medium was pretreated with CsA for 15 minutes when applicable, then subjected to various treatments for another 40 minutes. Total cytoplasmic RNA was extracted as previously described (Angel, et al., Cell, 49:729-739, 1987). 10 μg RNA was denatured by incubating with glyoxal for 60 minutes at 55° C. and fractionated on a 1% agarose gel in phosphate buffer. The fractionated RNA was blotted to Zetabind Nylon membrane (CUNO Labs) and hybridized to ^32P-labelled cDNA probes specific for c-jun, jun-B, jun-D, c-fos, α-tubulin and IL-2.\n(§3) During the first stage of T lymphocyte activation, early response genes are rapidly included (Crabtree, Science, 243:355,361, 1989; Zipfel, et al., Mol Cell Bio., 9:1041-1048, 1989). […] After fractionation of 10 μg samples on an agarose gel and transfer to nylon membrane, the level of c-jun, jun-B, jun-D, c-fos and α-tubulin expression was determined by hybridization to random primed cDNA probes.\n(§4) Second, Jurkat cells were incubated with 10 μg/ml soluble anti-CD3 (OKT3), 2 μg/ml soluble anti-CD28 (9.3) or a combination of 50 ng/ml TPA and 1 μg/ml A23817 (T/A) as indicated for 40 minutes. Total cytoplasmic RNA was isolated and 10 μg samples were analyzed as described above using c-jun, jun-D and c-fos probes. […]"}, "c-fos": {"tested_on": "c-fos", "assay": "Northern blot of c-fos expression in Jurkat cells", "protocol": "as §2, §3, §4"}}}
{"compound": "CCCCCCCCCCCCCC(=O)O[C@@H]1[C@@H](C)[C@@]2(O)[C@@H](C=C(CO)C[C@]3(O)C(=O)C(C)=C[C@@H]23)[C@H]2C(C)(C)[C@]12OC(C)=O", "note": "[TPA]", "values": [{"measurement": "N-terminal kinase activity, activation", "setting": "[1]", "value": 25, "unit": "fold"}, {"measurement": "N-terminal c-Jun kinase activity, effect of treatment", "setting": "[2]", "value": "minor compared to that of UV"}]}
{"compound": "anti-CD3: anti-CD3 monoclonal antibody OKT3", "values": [{"measurement": "c-jun expression, agent alone", "setting": "c-jun; soluble anti-CD3, 40 minutes", "value": "induction"}, {"measurement": "c-fos expression, agent alone", "setting": "c-fos; soluble anti-CD3, 40 minutes", "value": "induction"}]}
{"compound": "cyclosporin A [CsA]", "values": [{"measurement": "effect on synergistic induction of c-jun by both costimulatory paradigms", "setting": "c-jun; CsA 100 ng/ml with TPA+A23187 or anti-CD3+anti-CD28, 40 minutes", "value": "partially inhibited"}, {"measurement": "effect on maximal induction of c-fos by TPA+A23187", "setting": "c-fos; CsA 100 ng/ml, 40 minutes", "value": "not inhibited"}]}
